These compounds were tested against His-tagged p53-Y220C DNA binding domain (Homo sapiens, UniProt P04637, Y220C) (assay: Biochemical p53-Y220C and DNA binding assay (HTRF)). Conditions: inflection point of 10 points dose titration, 4 parameter curve fit; p53-Y220C DBD 100 nM, biotinylated dsDNA 200 nM, 27 to 29° C.; read-out: HTRF IP.
From the text: Biological Example 1. Biochemical p53-Y220C and DNA Binding Assay
The compounds of this invention can bind to p53-Y220C and increase the ability of the mutant p53 to bind to DNA at higher temperatures. His-tagged p53-Y220C DNA binding domain containing amino acid 94-312 is used to measure DNA binding activities in vitro with the sequence described below. (SEQ ID NO: 1: […]. Biotin labeled double strand DNA (dsDNA) containing consensus p53 binding sequence (SEQ ID NO: 2: Forward: 5′-(biotin)-[…]-3′; Reverse: 5′-(biotin)-[…]-3′) is used to measure protein-DNA binding activities. Compounds, His-tagged p53-Y220C DBD proteins (100 nM), and biotinylated dsDNA (200 nM) were mixed in ice-cold assay buffer containing DPBS, 20 mM NaCl, and 0.5% BAS, and incubated at 4° C. overnight in 384-well plate. Plates were transferred to incubator at 27 to 29° C. with constant shaking for 60 minutes. Equal volume of Homogeneous Time-Resolved Fluorescence (HTRF) dyes containing mAb anti-6HIS Tb cryptate gold and d2 labeled streptavidin in the assay buffer was added to each well and incubated at 27 to 29° C. with constant shaking for 60 minutes. The plate was read using Envision multimode plate reader. Reference compound 1 was used as high control and DMSO was used as low control. The percentage activation (A %) of protein-DNA binding by compounds was normalized by setting up high control (reference compound) as […] and low control (DMSO) as 0% (A %=(HTRF ratio of compound-HTRF ratio of low control)/(HTRF ratio of high control-HTRF ratio of low control)*500). 10 points dose titration curves for each compound were analyzed by 4 parameter curve fit and inflection point (IP) was reported. Reference compound 1 is shown below Table 1. Compounds of the invention are active in the HTRF assay. Data in Table 1 collected using Biological Example 1.

EC50 [nM]	SMILES
100 to 1000	CN1CC[C@@H](Nc2cccc3c2cc(/C=N/OCc2nc4ccccc4[nH]2)n3CC(F)(F)F)[C@@H](F)C1 [Example 2-9, (E)-4-(((3S,4R)-3-fluoro-1-methylpiperidin-4-yl)amino)-1-(2,2,2-trifluoroethyl)-1H-indole-2-carbaldehyde O-((1H-benzo[d]imidazol-2-yl)methyl)oxime]
100 to 1000	F[C@H]1CNCC[C@H]1Nc1cccc2c(CC(F)(F)F)c(/C=N/OCC3CC3)sc12 [Example 2-10, (E)-7-(((3S,4R)-3-fluoropiperidin-4-yl)amino)-3-(2,2,2-trifluoroethyl)benzo[b]thiophene-2-carbaldehyde O-cyclopropylmethyl oxime]
100 to 1000	F[C@H]1CNCC[C@H]1Nc1cccc2c(CC(F)(F)F)c(/C=N\OCC3CC3)sc12 [Example 2-11, (Z)-7-(((3S,4R)-3-fluoropiperidin-4-yl)amino)-3-(2,2,2-trifluoroethyl)benzo[b]thiophene-2-carbaldehyde O-cyclopropylmethyl oxime]
100 to 1000	OC(CO/N=C/c1sc2c(N[C@@H]3CCNC[C@@H]3F)cccc2c1CC(F)(F)F)c1ccccc1 (stereo partly drawn) [Example 2-12, (E)-7-(((3S,4R)-3-fluoropiperidin-4-yl)amino)-3-(2,2,2-trifluoroethyl)benzo[b]thiophene-2-carbaldehyde O-(2-hydroxy-2-phenylethyl) oxime]
100 to 1000	CC(O)CO/N=C/c1sc2c(N[C@@H]3CCNC[C@@H]3F)cccc2c1CC(F)(F)F (stereo partly drawn) [Example 2-13, (E)-7-(((3S,4R)-3-fluoropiperidin-4-yl)amino)-3-(2,2,2-trifluoroethyl)benzo[b]thiophene-2-carbaldehyde O-(2-hydroxypropyl) oxime]
> 1000	CO/N=C/c1sc2c(N[C@@H]3CCN(C)C[C@@H]3F)cccc2c1CC(F)(F)F [Example 2-14, (E)-7-(((3S,4R)-3-fluoro-1-methylpiperidin-4-yl)amino)-3-(2,2,2-trifluoroethyl)benzo[b]thiophene-2-carbaldehyde O-methyl oxime]
100 to 1000	CN1CC[C@@H](Nc2cccc3c(CC(F)(F)F)c(/C=N/OCc4nc5ccccc5[nH]4)sc23)[C@@H](F)C1 [Example 2-15, (E)-7-(((3S,4R)-3-fluoro-1-methylpiperidin-4-yl)amino)-3-(2,2,2-trifluoroethyl)benzo[b]thiophene-2-carbaldehyde O-((1H-benzo[d]imidazol-2-yl)methyl) oxime]
> 1000	CC(C)(C)O/N=C/c1sc2c(N[C@@H]3CNC[C@@H]3F)cccc2c1CC(F)(F)F [Example 2-16, (E)-7-(((3R,4S)-4-fluoropyrrolidin-3-yl)amino)-3-(2,2,2-trifluoroethyl)benzo[b]thiophene-2-carbaldehyde O-(tert-butyl) oxime]
100 to 1000	F[C@H]1CNC[C@H]1Nc1cccc2c(CC(F)(F)F)c(/C=N/OC3CCCC3)sc12 [Example 2-17, (E)-7-(((3R,4S)-4-fluoropyrrolidin-3-yl)amino)-3-(2,2,2-trifluoroethyl)benzo[b]thiophene-2-carbaldehyde O-cyclopentyl oxime]
100 to 1000	O=C1CCC(CO/N=C/c2sc3c(N[C@@H]4CNC[C@@H]4F)cccc3c2CC(F)(F)F)N1 (stereo partly drawn) [Example 2-18, (E)-7-(((3R,4S)-4-fluoropyrrolidin-3-yl)amino)-3-(2,2,2-trifluoroethyl)benzo[b]thiophene-2-carbaldehyde O-((5-oxopyrrolidin-2-yl)methyl) oxime]
100 to 1000	O=C1NC(CO/N=C/c2sc3c(N[C@@H]4CNC[C@@H]4F)cccc3c2CC(F)(F)F)CO1 (stereo partly drawn) [Example 2-19, (E)-7-(((3R,4S)-4-fluoropyrrolidin-3-yl)amino)-3-(2,2,2-trifluoroethyl)benzo[b]thiophene-2-carbaldehyde O-((2-oxooxazolidin-4-yl)methyl) oxime]
100 to 1000	Cc1oc(=O)oc1CO/N=C/c1sc2c(N[C@@H]3CNC[C@@H]3F)cccc2c1CC(F)(F)F [Example 2-20, (E)-7-(((3R,4S)-4-fluoropyrrolidin-3-yl)amino)-3-(2,2,2-trifluoroethyl)benzo[b]thiophene-2-carbaldehyde O-((5-methyl-2-oxo-1,3-dioxol-4-yl)methyl) oxime]
100 to 1000	CN1C[C@H](F)[C@H](Nc2cccc3c(CC(F)(F)F)c(/C=N/OCC(C)(C)O)sc23)C1 [Example 2-21, (E)-7-(((3R,4S)-4-fluoro-1-methylpyrrolidin-3-yl)amino)-3-(2,2,2-trifluoroethyl)benzo[b]thiophene-2-carbaldehyde O-(2-hydroxy-2-methylpropyl) oxime]
< 100	CC(C)N1C[C@H](F)[C@H](Nc2cccc3c(CC(F)(F)F)c(/C=N/OCC(C)(C)O)sc23)C1 [Example 2-22, (E)-7-(((3R,4S)-4-fluoro-1-isopropylpyrrolidin-3-yl)amino)-3-(2,2,2-trifluoroethyl)benzo[b]thiophene-2-carbaldehyde O-(2-hydroxy-2-methylpropyl) oxime]
100 to 1000	O=C1NCC(CO/N=C/c2sc3c(N[C@@H]4CNC[C@@H]4F)cccc3c2CC(F)(F)F)O1 (stereo partly drawn) [Example 2-23, (E)-7-(((3R,4S)-4-fluoropyrrolidin-3-yl)amino)-3-(2,2,2-trifluoroethyl)benzo[b]thiophene-2-carbaldehyde O-((2-oxooxazolidin-5-yl)methyl) oxime]
100 to 1000	F[C@H]1CNC[C@H]1Nc1cccc2c(CC(F)(F)F)c(/C=N/OC3CCC3)sc12 [Example 2-24, (E)-7-(((3R,4S)-4-fluoropyrrolidin-3-yl)amino)-3-(2,2,2-trifluoroethyl)benzo[b]thiophene-2-carbaldehyde O-cyclobutyl oxime]
100 to 1000	CC(O/N=C/c1sc2c(N[C@@H]3CNC[C@@H]3F)cccc2c1CC(F)(F)F)c1cccnc1 (stereo partly drawn) [Example 2-25, (E)-7-(((3R,4S)-4-fluoropyrrolidin-3-yl)amino)-3-(2,2,2-trifluoroethyl)benzo[b]thiophene-2-carbaldehyde O-(1-(pyridin-3-yl)ethyl) oxime]
< 100	O=c1cccc(CO/N=C/c2sc3c(N[C@@H]4CNC[C@@H]4F)cccc3c2CC(F)(F)F)[nH]1 [Example 2-26, (E)-7-(((3R,4S)-4-fluoropyrrolidin-3-yl)amino)-3-(2,2,2-trifluoroethyl)benzo[b]thiophene-2-carbaldehyde O-((6-oxo-1,6-dihydropyridin-2-yl)methyl) oxime]
100 to 1000	COc1cccc(CO/N=C/c2sc3c(N[C@@H]4CCN(C)C[C@@H]4F)cccc3c2CC(F)(F)F)n1 [Example 2-27, (E)-7-(((3S,4R)-3-fluoro-1-methylpiperidin-4-yl)amino)-3-(2,2,2-trifluoroethyl)benzo[b]thiophene-2-carbaldehyde O-((6-methoxypyridin-2-yl)methyl) oxime]
100 to 1000	COc1cccc(CO/N=C\c2sc3c(N[C@@H]4CCN(C)C[C@@H]4F)cccc3c2CC(F)(F)F)n1 [Example 2-28, (Z)-7-(((3S,4R)-3-fluoro-1-methylpiperidin-4-yl)amino)-3-(2,2,2-trifluoroethyl)benzo[b]thiophene-2-carbaldehyde O-((6-methoxypyridin-2-yl)methyl) oxime]
100 to 1000	CN1CC[C@@H](Nc2cccc3c(CC(F)(F)F)c(/C=N/OCc4cccc(=O)n4C)sc23)[C@@H](F)C1 [Example 2-29, (E)-7-(((3S,4R)-3-fluoro-1-methylpiperidin-4-yl)amino)-3-(2,2,2-trifluoroethyl)benzo[b]thiophene-2-carbaldehyde O-((1-methyl-6-oxo-1,6-dihydropyridin-2-yl)methyl) oxime]
100 to 1000	CN1CC[C@@H](Nc2cccc3c(CC(F)(F)F)c(/C=N\OCc4cccc(=O)n4C)sc23)[C@@H](F)C1 [Example 2-30, (Z)-7-(((3S,4R)-3-fluoro-1-methylpiperidin-4-yl)amino)-3-(2,2,2-trifluoroethyl)benzo[b]thiophene-2-carbaldehyde O-((1-methyl-6-oxo-1,6-dihydropyridin-2-yl)methyl) oxime]
< 100	CN1CC[C@@H](Nc2cccc3c(CC(F)(F)F)c(/C=N/OCc4cccc(=O)[nH]4)sc23)[C@@H](F)C1 [Example 2-31, (E)-7-(((3S,4R)-3-fluoro-1-methylpiperidin-4-yl)amino)-3-(2,2,2-trifluoroethyl)benzo[b]thiophene-2-carbaldehyde O-((6-oxo-1,6-dihydropyridin-2-yl)methyl) oxime]
100 to 1000	CN1CC[C@@H](Nc2cccc3c(SC(F)(F)F)c(/C=N/OCC(C)(C)O)sc23)[C@@H](F)C1 [Example 2-32, (E)-7-(((3S,4R)-3-fluoro-1-methylpiperidin-4-yl)amino)-3-((trifluoromethyl)thio)benzo[b]thiophene-2-carbaldehyde O-(2-hydroxy-2-methylpropyl) oxime]

Source: patent publication US20250120961A1, “P53 MODULATORS” (Nested Therapeutics, Inc., priority 2023, published 2025)
